Measurements from US20220017501A1, “MICROBIOCIDAL THIAZOLE DERIVATIVES” (SYNGENTA PARTICIPATIONS AG, priority 2018, published 2022).

Assays:
[1] = system: Magnaporthe grisea (Pyricularia oryzae); test: whole plant or invertebrate; type: in vivo; settings: foliar, read-out: control of Magnaporthe grisea
[2] = system: Blumeria graminis f. sp. tritici (Erysiphe graminis f. sp. tritici); test: Blumeria graminis f. sp. tritici / wheat / leaf disc preventative (powdery mildew on wheat); type: in vivo; settings: foliar, wheat leaf segments, compared to untreated control
Description: Example B4: Blumeria Graminis f. sp. Tritici (Erysiphe Graminis f. sp. Tritici)/Wheat/Leaf Disc Preventative (Powdery Mildew on Wheat) Wheat leaf segments cv. Kanzler are placed on agar in a multiwell plate (24-well format) and sprayed with the formulated test compound diluted in water. The leaf disks are inoculated by shaking powdery mildew infected plants above the test plates 1 day after application. The inoculated leaf disks are incubated at 20° C. and 60% rh under a light regime of 24 h darkness followed by 12 h light/12 h darkness in a climate chamber and the activity of a compound is assessed as percent disease control compared to untreated when an appropriate level of disease damage appears on untreated check leaf segments (6-8 days after application). […].23.

[3] = system: Glomerella lagenarium (Colletotrichum lagenarium); test: Glomerella lagenarium (Colletotrichum lagenarium) / liquid culture (anthracnose); type: cell-based; settings: Colletotrichum orbiculare, growth inhibition photometrically 3-4 days after application, read-out: control of Glomerella lagenarium
Description: (§1) Example B3: Glomerella Lagenarium (Colletotrichum Lagenarium)/Liquid Culture (Anthracnose) Conidia of the fungus from cryogenic storage are directly mixed into nutrient broth (PDB potato dextrose broth). After placing a (DMSO) solution of test compound into a microtiter plate (96-well format), the nutrient broth containing the fungal spores is added. The test plates are incubated at 24° C. and the inhibition of growth is measured photometrically 3-4 days after application.

Fusarium culmorum = type: in vivo; settings: 200 ppm; wheat spikelets, preventative; compared to untreated control
[4] = type: physicochemical; settings: for Solubility in water: pH 7.2
Description: Saturated solutions of test compounds were prepared in either aqueous buffer solutions (10 mM mixed phosphate, pH 7.20) or in heptane. Typically 1 mg of test compound in a 2 dram vial with 1 mL of buffer or heptane was left overnight (20 hours) on a roller shaker after an initial 20 minute period in a sonic bath. Saturated samples were then filtered through Millex-HV 0.45 micron syringe driven filters (aqueous or non-aqueous version dependent on solvent). […] Protocol variations included pre-saturation of the filters for compounds expected to have very low solubility, and centrifugation of the saturated samples for oils.

[5] = system: Monographella nivalis (Microdochium nivale); test: Monographella nivalis (Microdochium nivale) / liquid culture (foot rot cereals); type: cell-based; settings: growth inhibition photometrically 4-5 days after application, read-out: control of Monographella nivalis
Description: as §1, with “B7: Monographella Nivalis (Microdochium Nivale)/Liquid” for “B3: Glomerella Lagenarium (Colletotrichum Lagenarium)/Liquid”, “(Foot Rot Cereals)” for “(Anthracnose)”, “determined” for “measured”, “4-5” for “3-4”, “application. […] […].23.” for “application.”

Pyrenophora teres = Pyrenophora teres / barley / leaf disc preventative (net blotch); type: in vivo; settings: foliar, barley leaf segments, compared to untreated control
Description: Example B14: Pyrenophora Teres/Barley/Leaf Disc Preventative (Net Blotch) Barley leaf segments cv. Hasso are placed on agar in a multiwell plate (24-well format) and sprayed with the formulated test compound diluted in water. The leaf […] inoculated with a spore suspension of the fungus 2 days after application. The inoculated leaf segments are incubated at 20° C. and 65% rh under a light regime of 12 h light/12 h darkness in a climate cabinet and the activity of a compound is assessed as disease control compared to untreated when an appropriate level of disease damage appears in untreated check leaf segments (5-7 days after application). […] […].23.

[6] = Photostability, thin-film irradiation (Atlas Suntest); type: physicochemical; settings: thin film on glass, filtered xenon lamp 750 W/m2; time for first 50% loss
Description: Throughout the following description, LogP means logarithm of the partition coefficient, ppm means parts per million, and T50 represents the half-time of the compound under irradiation conditions.
Photostability tests were carried out by irradiation of thin-film deposits of compounds and 20 formulations on glass surfaces, using a filtered xenon lamp system (Atlas Suntest) which reproduces the spectrum and intensity of sunlight. The spectral output power of the Suntest was set to 750 W/m2, which is the typical daily maximum irradiance level at noon (UK, midsummer).
Test compounds were typically dissolved in HPLC grade methanol to give 1 g/L stock solutions. Alternatively, formulated compounds were suspended in water at the same concentration. 2 μL droplets of test solutions were spotted onto microscope cover slips in a 3D printed holder, allowed to dry then irradiated in the Suntest for varying times. […] Solutions were analysed by reverse phase HPLC, typically using a Waters UPLC system with Photodiode Array (PDA) and Waters columns (BEH C18, 100×2.1mm×1.7 μm) using mixed aqueous:acetonitrile mobile phase, acidifed with 0.2% formic acid. Peak detection was at the optimum wavelength for each candidate compound and PDA peak areas were used for quantification. […]

physchem = settings: pH 7
[7] = system: Mycosphaerella graminicola (Septoria tritici); test: Mycosphaerella graminicola (Septoria tritici) / liquid culture (Septoria blotch); type: cell-based; settings: Zymoseptoria tritici, growth inhibition photometrically 4-5 days after application, read-out: control of Mycosphaerella graminicola
Description: as §1, with “B16: Mycosphaerella Graminicola (Septoria Tritici)/Liquid” for “B3: Glomerella Lagenarium (Colletotrichum Lagenarium)/Liquid”, “(Septoria Blotch)” for “(Anthracnose)”, “determined” for “measured”, “4-5” for “3-4”, “application. […] […].23.” for “application.”

[8] = system: Mycosphaerella arachidis (Cercospora arachidicola); test: Mycosphaerella arachidis (Cercospora arachidicola) / liquid culture (early leaf spot); type: cell-based; settings: growth inhibition photometrically 4-5 days after application, read-out: control of Mycosphaerella arachidis
Description: as §1, with “B8: Mycosphaerella Arachidis (Cercospora Arachidicola)/Liquid” for “B3: Glomerella Lagenarium (Colletotrichum Lagenarium)/Liquid”, “(Early Leaf Spot)” for “(Anthracnose)”, “determined” for “measured”, “4-5” for “3-4”, “application. […] […].23.” for “application.”

[9] = system: Puccinia recondita f. sp. tritici; test: Puccinia recondita f. sp. tritici / wheat / leaf disc preventative (brown rust); type: in vivo; settings: foliar, wheat leaf segments, preventative (inoculated 1 day after application), compared to untreated control, read-out: control of Puccinia recondite f. sp. tritici
Description: Example B12: Puccinia Recondita f. sp. Tritici/Wheat/Leaf Disc Preventative (Brown Rust) Wheat leaf segments cv. Kanzler are placed on agar in multiwell plates (24-well format) and sprayed with the formulated test compound diluted in water. The leaf disks are inoculated with a spore suspension of the fungus 1 day after application. The inoculated leaf segments are incubated at 19° C. and 75% rh under a light regime of 12 h light/12 h darkness in a climate cabinet and the activity of a compound is assessed as percent disease control compared to untreated when an appropriate level of disease damage appears in untreated check leaf segments (7-9 days after application). […] […].23.

In the case of Cc1sc(N(C#N)c2cc(F)nc(F)c2)nc1C(=O)NC1CCC1(C)C (stereo not drawn) [I.b.23, 2-[cyano-(2,6-difluoro-4-pyridyl)amino]-N-(2,2-dimethylcyclobutyl)-5-methyl-thiazole-4-carboxamide], the pest or weed control at 200 ppm [1] is reported as ≥ 80%, the pest or weed control at 200 ppm [2] is reported as ≥ 80% and the inhibition of growth at 20 ppm [3] is reported as ≥ 80%. The “control of Fusarium culmorum” value (Fusarium culmorum) was “at least 80%”, the Solubility in heptane [4] was 699 ppm and the Solubility in water [4] was 2.5 ppm. For the same molecule, the inhibition of growth at 20 ppm [5] was ≥ 80%, the pest or weed control at 200 ppm (Pyrenophora teres) was ≥ 80% and the “Photostability T50” value [6] was 11 h. The chromatographic logP (physchem) was 3.76, the inhibition of growth at 20 ppm [7] was ≥ 80% and the inhibition of growth at 20 ppm [8] was ≥ 80%.
With Cc1sc(N(C#N)c2cncc(F)c2)nc1C(=O)NC1CCC1(C)C (stereo not drawn) [I.b.18, 2-[cyano-(5-fluoro-3-pyridyl)amino]-N-(2,2-dimethylcyclobutyl)-5-methyl-thiazole-4-carboxamide] the pest or weed control at 200 ppm [1] was ≥ 80%, the pest or weed control at 200 ppm [2] was ≥ 80% and the inhibition of growth at 20 ppm [3] was ≥ 80%. For the same molecule, the melting point was 150 to 152 °C, the inhibition of growth at 20 ppm [5] was ≥ 80% and the inhibition of growth at 20 ppm [7] was ≥ 80%. The pest or weed control at 200 ppm [9] was ≥ 80% and the inhibition of growth at 20 ppm [8] was ≥ 80%.
In the case of Cc1sc(Nc2cc(F)nc(F)c2)nc1C(=O)NC1CCC1(C)C (stereo not drawn) [Compound E-0, 2-[(2,6-difluoro-4-pyridyl)amino]-N-(2,2-dimethylcyclobutyl)-5-methyl-thiazole-4-carboxamide, reference compound], the Solubility in heptane [4] is reported as 4.1 ppm, the Solubility in water [4] is reported as 0.70 ppm and the “Photostability T50” value [6] is reported as 3.5 h. The chromatographic logP (physchem) was 5.08.
